Laboratory results published in US11564911B2, “Small molecule dual-inhibitors of TRPV4 and TRPA1 for sanitizing and anesthetizing” (Duke University, priority 2016, dated 2023).
Entries after “also recorded” stand apart in the source; their conditions may differ.

Assays:
TRPV4 [1] = biological target: T1, TRPV4 (Sus scrofa, UniProt B3VP30); test: Ca++ imaging in primary articular chondrocytes, GSK101 stimulation; format: cell-based; settings: primary articular chondrocytes (pig), 5 nM GSK101
T1 construct: primary cells, which express functional and biologically-relevant TRPV4 without directed over-expression of the channel; endogenous in cells; host or cells: primary porcine articular chondrocytes (femoral condyles)
T1 sequence (B3VP30 1-871): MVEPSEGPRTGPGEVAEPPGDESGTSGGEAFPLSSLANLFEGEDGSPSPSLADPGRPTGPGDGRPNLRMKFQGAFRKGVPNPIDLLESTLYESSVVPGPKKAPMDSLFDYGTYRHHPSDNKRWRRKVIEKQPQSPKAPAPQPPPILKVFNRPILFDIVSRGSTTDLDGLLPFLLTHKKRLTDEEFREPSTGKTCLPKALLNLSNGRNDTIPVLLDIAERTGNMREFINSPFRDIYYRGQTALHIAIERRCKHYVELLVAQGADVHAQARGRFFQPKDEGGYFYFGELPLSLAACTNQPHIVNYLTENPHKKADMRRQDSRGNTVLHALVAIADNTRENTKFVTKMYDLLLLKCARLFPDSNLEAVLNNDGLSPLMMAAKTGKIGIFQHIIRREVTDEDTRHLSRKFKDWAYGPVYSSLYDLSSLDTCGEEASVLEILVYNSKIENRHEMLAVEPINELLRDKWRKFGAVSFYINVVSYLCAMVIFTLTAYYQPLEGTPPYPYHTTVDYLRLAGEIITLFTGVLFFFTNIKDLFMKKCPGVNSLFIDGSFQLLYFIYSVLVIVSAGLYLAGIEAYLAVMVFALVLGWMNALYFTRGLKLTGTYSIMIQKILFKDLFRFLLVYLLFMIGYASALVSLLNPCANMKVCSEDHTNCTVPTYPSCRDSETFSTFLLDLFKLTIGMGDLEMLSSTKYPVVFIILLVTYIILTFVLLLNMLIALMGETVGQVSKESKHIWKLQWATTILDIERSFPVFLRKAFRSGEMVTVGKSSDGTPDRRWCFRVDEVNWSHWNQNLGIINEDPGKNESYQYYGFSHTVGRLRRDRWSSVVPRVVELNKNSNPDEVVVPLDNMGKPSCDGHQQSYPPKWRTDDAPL
Method: FIGS. 28A-28B: Compound 16-8 inhibits TRPV4 in I° cells more potently than GSK205. […] Inset: Chondrocytes responding to activation with GSK101, fura-2 Ca++ imaging; right-hand image taken at 5 sec after GSK101 application. […] (FIG. 28B) 1° (primary) astrocytes (rat); dose-response comparison between 16-8 and GSK205 in response to 5 nM GSK101. Inset: Astrocytes responding to activation with GSK101; right-hand image taken at 5 sec after GSK101 application (mean±SEM, n=5 independent expts, 200 cells/expt; *p<0.05, t-test).
Primary porcine chondrocytes derived from femoral condyles of skeletally mature pigs were cultured and subjected to Ca++ imaging as described previously^19,32,62,63.

[2] = test system: C57BL/6J mice, caerulein-evoked acute pancreatitis; test: Caerulein-evoked acute pancreatitis mouse model; format: in vivo; settings: 10 mg/kg i.p., 30 min before caerulein
Method: C57BL/6J male mice 8-10 weeks of age were subjected to acute pan-creatitis by intraperitoneal injections of supramaximal doses of caerulein (50 μg/kg) every hour for a total of 6 h, as previously described in^61. Control animals received 25% DMSO-saline solution by intraperitoneal injection every hour for 6 h. Compound 16-8 was dissolved in this vehicle (10 mg/kg) and injected i.p. 30 min prior to the first injection of caerulein. Animals were sacrificed 1 h after the last injection. Blood was collected and pancreatic tissue was promptly isolated, weighed for determination of pancreas wet weight/body weight ratio. Samples of tis-sues were fixed overnight in 10% neutral-buffered formalin, paraffin embedded and H&E-stained, or pancreatic tissue was quickly frozen and assessed for myeloperoxidase (MPO) activity. Serum amylase, MPO and histologic evaluation were conducted as described previously^61.
Assessment of nocifensive behavior^8: Mice were housed in individual cages and video-recorded during the entire experiment. Two mice at a time were observed. Linear movement was measured as one event when mice passed through the median plane of the cage. Analysis began immediately after the first caerulein/vehicle injec-tion and continued until the end of the experiment. Results were expressed as the sum of the movement events spanning the 6 h time-period following the first injection.

[3] = test system: primary mouse keratinocytes (1° MK); test: UVB-evoked Ca++ signaling in primary mouse keratinocytes (fluo-4); format: cell-based
Method: Ca++ imaging of 1° MK was conducted following routine procedures. For UVB stimulation, a customized device was built. The system comprised a printed circuit board for electrical interconnects and mechanical support and an ultraviolet light-emitting diode (UV LED).
The operating wavelength was 295 nm (FIG. 2A), with a full-width half-max of 12 nm. The optical power was 500 mW. The focal point was aimed at the plane of the upper surface of the quartz coverslip, which was used to minimize UV absorption along the optical path towards the cells (FIG. 2A-C). The optical intensity at the focal point was estimated to be 150 mW/mm^2.
Ca++ imaging of mouse 1° MK in response to chemical activation of TRPV4 was conducted after loading with 2 μM fura2-AM, following a ratiometric Ca2+ imaging protocol with 340/380 nm […] for dual excitation. Ratios of emissions were acquired at 0.5 Hz. ΔR/R0 was determined as the fraction of the increase of a given ratio over baseline ratio, divided by baseline ratio. For stimulation of cells with UVB, where fura-2 was not suitable because of the proximity of stimulation with 340/380 nm and 295 nm, 2 μM fluo4-AM was used instead. Ca++ imaging was carried out at 488 nm excitation, acquisition of emissions at 0.5 Hz, expressed as ΔF/F0. In the custom-built UV optical system, UV LEDs were capped with a ball lens, a transparent optical window in the shape of a hemispherical lens (FIG. 2B). The LED output optical beam focused at 15-20 mm from the lens, with a spot diameter of approximately 1.5-2.0 mm (FIG. 2C). […] The thermal equilibration stage was set for physiological temperature.

[4] = test system: primary mouse keratinocytes (1° MK); test: ET1 immunocytochemistry in UVB-exposed primary mouse keratinocytes; format: cell-based; settings: 295 nm UVB-LED
Method: 1° MK were exposed to UVB using the UV optical system (295 nm LED). 24 hours later the cells were fixed and fluorescently immunolabeled for ET1. Digital images were captured and subjected to morphometry.
Mouse keratinocytes were cultured on collagen coated quartz coverslips and then stimulated from the bottom using the previously mentioned UV optical system using the 295 nm LED. 24 hours later the cells were fixed in 4% formaldehyde in PBS for 20 minutes, permeabilized with 0.1% Triton X-100 in PBS for 10 minutes, washed, then blocked in 10% normal goat serum in PBS for 45 minutes. Coverslips were incubated overnight with primary antibody mouse anti-ET1 (1:200; Abcam), washed three times in PBS and incubated with secondary antibody for 2 hours at 25° C. Coverslips were washed three times in PBS, once with double-distilled H2O. Digital images were captured using a 40× immersion lens on the BX61 Olympus upright microscope. Morphometric analysis was conducted using ImageJ freeware with tailored regions-of-interest.

TRPV4 [5] = biological target: TRPV4 (Homo sapiens, UniProt Q9HBA0); test: UVB-evoked Ca++ transient in TRPV4-transfected HEK293T cells; format: cell-based; parameters: expressed in transfected cells; settings: preexposure to 20 μM GSK205
Chain of TRPV4 (Homo sapiens, UniProt Q9HBA0) (Q9HBA0 whole entry, species assumed): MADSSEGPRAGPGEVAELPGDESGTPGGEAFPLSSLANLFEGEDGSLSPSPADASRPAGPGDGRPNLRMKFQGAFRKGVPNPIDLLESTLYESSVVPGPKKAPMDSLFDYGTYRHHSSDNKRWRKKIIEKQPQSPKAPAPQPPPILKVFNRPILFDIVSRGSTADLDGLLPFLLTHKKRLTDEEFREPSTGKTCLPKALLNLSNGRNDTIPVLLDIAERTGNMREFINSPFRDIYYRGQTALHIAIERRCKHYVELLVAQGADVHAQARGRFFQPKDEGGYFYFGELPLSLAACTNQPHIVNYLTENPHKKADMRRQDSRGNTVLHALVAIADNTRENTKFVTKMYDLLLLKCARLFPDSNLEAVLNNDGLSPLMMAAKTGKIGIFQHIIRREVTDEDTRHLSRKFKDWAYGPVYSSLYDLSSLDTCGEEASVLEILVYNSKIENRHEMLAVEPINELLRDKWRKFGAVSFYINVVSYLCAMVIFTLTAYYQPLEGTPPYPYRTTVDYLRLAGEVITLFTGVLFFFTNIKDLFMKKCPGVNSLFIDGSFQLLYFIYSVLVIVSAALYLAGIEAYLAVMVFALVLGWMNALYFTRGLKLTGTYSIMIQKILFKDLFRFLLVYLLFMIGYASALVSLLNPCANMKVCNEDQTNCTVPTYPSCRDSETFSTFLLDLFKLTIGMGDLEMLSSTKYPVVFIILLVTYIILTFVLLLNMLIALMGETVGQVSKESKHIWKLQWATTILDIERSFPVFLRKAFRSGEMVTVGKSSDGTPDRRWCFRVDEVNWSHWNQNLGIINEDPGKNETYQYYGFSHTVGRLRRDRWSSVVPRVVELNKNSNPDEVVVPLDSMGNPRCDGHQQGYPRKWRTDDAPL
Text: (FIG. 2B) Focusing properties of the ball lens. […] (FIG. 2E) TRPV3 activation experiment. […] (FIG. 2F) TRPV4 selective activator GSK101-related findings.
To assess whether TRPV4 is sufficient for the UVB-evoked Ca++ influx, we introduced high levels of TRPV4 into HEK293 epithelial cells. TRPV4 expression endowed these cells with the ability to generate robust Ca++ signaling in response to UVB (FIG. 2G). Moreover, if they were pre-exposed to GSK205, the response was blocked. Thus, heterologous TRPV4 expression is sufficient for UVB radiation to cause a cellular Ca++ transient.

SMILES: CN(CCc1ccc(Nc2nc(-c3ccccc3)cs2)cc1)Cc1ccccc1 [Compound 16-8]
- potency versus GSK205, dose-response of peak ΔCa++ (TRPV4 [1]): significantly more potent than GSK205
- histopathological score for pancreas inflammation [2]: significantly reduced
- myelo-peroxidase content of the pancreas [2]: significantly reduced
- pain behavior (movement events over 6 h) [2]: virtually eliminated
- pancreatic edema [2]: virtually eliminated
- serum amylase [2]: significantly reduced; also recorded: reduced, but not significantly

SMILES: CN(CCc1ccc(Nc2nc(-c3cccnc3)cs2)cc1)Cc1ccccc1 [GSK205]
- UVB-evoked Ca++ signal ([3]; GSK205 20 μM): strongly down-regulated
- ET1-augmented UVB-induced Ca++ transients ([3]; co-exposure to ET1): greatly diminished
- ET1 immunoreactivity in UVB-exposed 1° MK [4]: significant down-regulation
- UVB-evoked Ca++-signal in TRPV4-transfected HEK293T cells (TRPV4 [5]): virtually eliminates
